Patent publication US8273900B2, “Organic compounds” (Novartis AG, priority 2008, dated 2012)
Counter-ions that a name gives are not always drawn.

The compounds below were run against T1, human recombinant CRF-1 receptor (Homo sapiens, UniProt P34998) (assay: CRF-1 receptor antagonism, HTRF cAMP assay in CHO cells in the presence of 1 nM CRF). Settings: CHO cells expressing human recombinant CRF-1; inhibition of the effect of 1 nM CRF on cAMP.
T1 construct: expressed in transfected cells; host or cells: CHO cells (G418-selected)
T1 sequence (P34998 24-415): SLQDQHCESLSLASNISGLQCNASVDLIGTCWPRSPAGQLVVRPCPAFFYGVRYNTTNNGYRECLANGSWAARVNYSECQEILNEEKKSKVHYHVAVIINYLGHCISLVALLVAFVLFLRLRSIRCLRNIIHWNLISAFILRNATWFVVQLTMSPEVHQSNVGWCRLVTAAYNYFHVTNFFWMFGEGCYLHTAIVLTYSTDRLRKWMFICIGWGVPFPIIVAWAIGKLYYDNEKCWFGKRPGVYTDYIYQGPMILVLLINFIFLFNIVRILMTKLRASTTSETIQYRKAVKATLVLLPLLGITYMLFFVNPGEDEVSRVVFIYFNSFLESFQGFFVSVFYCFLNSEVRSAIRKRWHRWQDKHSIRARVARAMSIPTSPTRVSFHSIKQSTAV
Type: cell-based
Description: The CRF-1 or CRF-2α receptor antagonistic activity of the agents of the invention has been determined in vitro in the following assay:
Chinese hamster ovary (CHO) cells expressing either the human recombinant CRF-1 or CRF-2a receptors (Chen et al., Proc Natl Acad Sci USA 90, 8967-8971, 1993; Liaw et al., Endocrinology 137, 72-77, 1996) are propagated in Dulbecco's modified Eagle medium supplemented with 10% foetal calf serum, non-essential amino acids, 100 U/ml penicillin, 100 mg/l streptomycin and 1 g/l geneticin (G418). For cyclic AMP determinations the Homogeneous Time-Resolved Fluoresce (HTRF) cAMP dynamic 2 kit (Cisbio International, France) was used as per manufacturers' instructions. CHO cells, previously cryopreserved, were thawed, centrifuged for 7 mins at 1200 rpm and resuspended in serum free media, then pipetted out onto clear bottomed black tissue culture treated 384-well microtitre plates (Corning Inc, US) at 2,000 cells per well. Compounds of the invention, prepared in DMSO, and subsequently diluted 50 fold in assay buffer (1× Hanks balanced salt solution, 0.2% (w/v) bovine serum albumin, 1.7 mM isobutylmethylxanthine and 10 mM Hepes, pH 7.4) are then added onto the cell containing plate where a further 2 fold dilution is performed and incubated for 15 min. Following incubation, buffer containing a 5 times final concentration of agonist is added to the plate and incubated for 30 min. Finally, d2 dye labelled cAMP and cryptate labeled anti-cAMP antibody, both made in lysis buffer, are added to the plate followed by a settling period of 1 hour. During the settling period cAMP produced by the cells competes with the d2 labelled cAMP for the anti-cAMP cryptate. The plate is read on the Pherastar (BMG, Germany). Increasing levels of endogenous cAMP produced by cells can be followed by a decrease of fluorescent signal and vice versa. Values represented by a change in arbitrary fluorescence units are converted into cAMP concentrations by use of a standard curve the reagents for which are supplied with the kit. Antagonist dose response curves (1 nM-30 μM) are constructed in the presence of 1 nM CRF. IC50 values of antagonists are calculated by fitting the percent inhibition of the effect of CRF by increasing concentrations of the antagonists. The fit is performed using the nonlinear logistic function of the Activitybase software package v 5.4.5.27 (IDBS, UK).

IC50	SMILES
36 nM	Cc1cnc(NC[C@H]2CC[C@H](NC(=O)c3cc(C(F)(F)F)ccc3Cl)CC2)s1 [Example 2.5, Trans-2-Chloro-N-{4-[(5-methyl-thiazol-2-ylamino)-methyl]-cyclohexyl}-5-trifluoromethyl-benzamide]
215 nM	Cc1cc(C)nc(NC[C@H]2CC[C@H](NC(=O)c3cc(C(F)(F)F)ccc3Cl)CC2)c1 [Example 2.6, Trans-2-Chloro-N-{4-[(4,6-dimethyl-pyridin-2-ylamino)-methyl]-cyclohexyl}-5-trifluoromethyl-benzamide]
66 nM	Cc1ccc(NC[C@H]2CC[C@H](NC(=O)c3cc(C(F)(F)F)ccc3Cl)CC2)nc1 [Example 2.8, Trans-2-Chloro-N-{4-[(5-methyl-pyridin-2-ylamino)-methyl]-cyclohexyl}-5-trifluoromethyl-benzamide]
39 nM	Cc1cccc(NC[C@H]2CC[C@H](NC(=O)c3cc(C(F)(F)F)ccc3Cl)CC2)n1 [Example 2.9, Trans-2-Chloro-N-{4-[(6-methyl-pyridin-2-ylamino)-methyl]-cyclohexyl}-5-trifluoromethyl-benzamide]
63 nM	O=C(N[C@H]1CC[C@H](CNc2ccccc2Cl)CC1)c1cc(C(F)(F)F)ccc1Cl [Example 2.26, Trans-2-Chloro-N-{4-[(2-chloro-phenylamino)-methyl]-cyclohexyl}-5-trifluoromethyl-benzamide]
346 nM	O=C(N[C@H]1CC[C@H](CNCc2cc(-c3ccccc3)on2)CC1)c1cc(C(F)(F)F)ccc1Cl [Example 2.35, Trans-2-Chloro-N-(4-{[(5-phenyl-isoxazol-3-ylmethyl)-amino]-methyl}-cyclohexyl)-5-trifluoromethyl-benzamide]
61 nM	O=C(N[C@H]1CC[C@H](CNc2cc(-c3ccc(F)cc3)n[nH]2)CC1)c1cc(C(F)(F)F)ccc1Cl [Example 4.11, Trans-2-Chloro-N-(4-{[5-(4-fluoro-phenyl)-2H-pyrazol-3-ylamino]-methyl}-cyclohexyl)-5-trifluoromethyl-benzamide]
61 nM	CCCc1cc(NC[C@H]2CC[C@H](NC(=O)c3cc(C(F)(F)F)ccc3Cl)CC2)n[nH]1 [Example 4.15, Trans-2-Chloro-N-{4-[(5-propyl-1H-pyrazol-3-ylamino)-methyl]-cyclohexyl}-5-trifluoromethyl-benzamide]
63 nM	CC(C)c1cc(NC[C@H]2CC[C@H](NC(=O)c3cc(C(F)(F)F)ccc3Cl)CC2)n[nH]1 [Example 4.16, Trans-2-Chloro-N-{4-[(5-isopropyl-1H-pyrazol-3-ylamino)-methyl]-cyclohexyl}-5-trifluoromethyl-benzamide]
76 nM	O=C(N[C@H]1CC[C@H](CNc2cccnc2)CC1)c1cc(C(F)(F)F)ccc1Cl [Example 4.21, Trans-2-Chloro-N-[4-(pyridin-3-ylaminomethyl)-cyclohexyl]-5-trifluoromethyl-benzamide]
50 nM	O=C(N[C@H]1CC[C@H](CNc2ccccc2)CC1)c1cc(C(F)(F)F)ccc1Cl [Example 4.33, Trans-2-Chloro-N-(4-phenylaminomethyl-cyclohexyl)-5-trifluoromethyl-benzamide]
66 nM	Cc1ncc(Cl)cc1C(=O)N[C@H]1CC[C@H](CNc2nc(C)c(C)s2)CC1 [Example 5.14, Trans-5-Chloro-N-{4-[(4,5-dimethyl-thiazol-2-ylamino)-methyl]-cyclohexyl}-2-methyl-nicotinamide]

Second part, the compound before the results:

SMILES	IC50
C[C@@H]1C[C@@H](NC(=O)c2cc(C(F)(F)F)ccc2Cl)CC[C@@H]1CNc1cc(-c2ccc(F)cc2)[nH]n1 (racemic) [Example 1.35a, (+/−)-2-Chloro-N-((1S,3R,4S)-4-{[5-(4-fluoro-phenyl)-1H-pyrazol-3-ylamino]-methyl}-3-methyl-cyclohexyl)-5-trifluoromethyl-benzamide]	199 nM
Cc1cccnc1NC[C@H]1CC[C@H](NC(=O)c2cc(C(F)(F)F)ccc2Cl)CC1 [Example 1, Trans-2-Chloro-N-{4-[(3-methyl-pyridin-2-ylamino)-methyl]-cyclohexyl}-5-trifluoromethyl-benzamide]	38 nM
Cc1ncccc1NC[C@H]1CC[C@H](NC(=O)c2cc(C(F)(F)F)ccc2Cl)CC1 [Example 1.13, Trans-2-Chloro-N-{4-[(2-methyl-pyridin-3-ylamino)-methyl]-cyclohexyl}-5-trifluoromethyl-benzamide]	19 nM
Cc1nc(NC[C@H]2CC[C@H](NC(=O)c3cc(Cl)cnc3Cl)CC2)sc1C [Example 1.18, Trans-2,5-Dichloro-N-{4-[(4,5-dimethyl-thiazol-2-ylamino)-methyl]-cyclohexyl}-nicotinamide]	31 nM
O=C(O)c1ccc(NC[C@H]2CC[C@H](NC(=O)c3cc(C(F)(F)F)ccc3Cl)CC2)nc1 [Example 1.33, Trans-6-{[4-(2-Chloro-5-trifluoromethyl-benzoylamino)-cyclohexylmethyl]-amino}-nicotinic acid]	6420 nM
CN(C)Cc1ccc(NC[C@H]2CC[C@H](NC(=O)c3cc(C(F)(F)F)ccc3Cl)CC2)nc1 [Example 1.34, Trans-2-Chloro-N-{4-[(5-dimethylaminomethyl-pyridin-2-ylamino)-methyl]-cyclohexyl}-5-trifluoromethyl-benzamide hydrochloride]	1240 nM
Cc1nc(NC[C@H]2CC[C@H](NC(=O)c3cc(C(F)(F)F)ccc3Cl)CC2)sc1C [Example 3, Trans-2-chloro-N-{4-[(4,5-dimethyl-thiazol-2-ylamino)-methyl]-cyclohexyl}-5-trifluoromethyl-benzamide]	60 nM
O=C(N[C@H]1CC[C@H](Cn2ccc(N3CCNC3=O)n2)CC1)c1cc(C(F)(F)F)ccc1Cl [Example 6, Trans-2-chloro-N-(4-((3-(2-oxoimidazolidin-1-yl)-1H-pyrazol-1-yl)methyl)cyclohexyl)-5-(trifluoromethyl)benzamide]	90 nM
Cc1cc(C)n(C[C@H]2CC[C@H](NC(=O)c3cc(C(F)(F)F)ccc3Cl)CC2)n1 [Example 7, Trans-2-chloro-N-[4-(3,5-dimethyl-pyrazol-1-ylmethyl)-cyclohexyl]-5-trifluoromethyl-benzamide]	22 nM
O=C(N[C@H]1CC[C@H](CNc2cc(C3CC3)n[nH]2)CC1)c1cc(C(F)(F)F)ccc1Cl [Example 8, Trans-2-Chloro-N-{4-[(5-cyclopropyl-2H-pyrazol-3-ylamino)-methyl]-cyclohexyl}-5-trifluoromethyl-benzamide]	47 nM
O=C(N[C@H]1CC[C@H](CNc2cccc(F)c2)CC1)c1cc(C(F)(F)F)ccc1Cl [Example 9, Trans-2-Chloro-N-{4-[(3-fluoro-phenylamino)-methyl]-cyclohexyl}-5-trifluoromethyl-benzamide]	50 nM
Cc1cncc(NC[C@H]2CC[C@H](NC(=O)c3cc(C(F)(F)F)ccc3Cl)CC2)c1 [Example 10, Trans-2-chloro-N-(4-((5-methylpyridin-3-ylamino)methyl)-cyclohexyl)-5-(trifluoromethyl)benzamide]	41 nM
CN(Cc1cc(-c2ccccc2)n[nH]1)C[C@H]1CC[C@H](NC(=O)c2cc(Cl)ccc2Cl)CC1 [Example 11, Trans-2,5-Dichloro-N-(4-{[methyl-(5-phenyl-2H-pyrazol-3-ylmethyl)amino]-methyl}-cyclohexyl)-benzamide]	174 nM
O=C(N[C@H]1CC[C@H](CNc2ccccc2)CC1)c1cccc(Cl)c1 [Example 12, Trans-3-Chloro-N-(4-phenylaminomethyl-cyclohexyl)-benzamide]	137 nM
O=C(N[C@H]1CC[C@H](CNc2cccc3ncccc23)CC1)c1cccc(C(F)(F)F)c1 [Example 13, Trans-N-[4-(Quinolin-5-ylaminomethyl)-cyclohexyl]-3-trifluoromethyl-benzamide]	70 nM
O=C(N[C@H]1CC[C@@H](CNc2cc(-c3ccc(F)cc3)n[nH]2)CC1)c1cc(C(F)(F)F)ccc1Cl [Example 14, Cis-2-Chloro-N-(4-{[5-(4-fluoro-phenyl)-2H-pyrazol-3-ylamino]-methyl}-cyclohexyl)-5-trifluoromethyl-benzamide]	3230 nM
